# Test results reported in PubChem BioAssay AID330 (DTP/NCI, 2004).
# Several values for one entry are separate records, joined by “and”; a condition that tells them apart may be missing. Equal values may be shown once. Inconclusive results and toxic doses are left out.
# Test system: P388 leukemia ip, CD2F1 mice, survival T/C
# Test: NCI In Vivo Anticancer Drug Screen. Data for tumor model P388 Leukemia (intraperitoneal) in CD2F1 (CDF1) mice
# Details: endpoint: median survival time, higher = longer survival
# In short: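 Mice carrying the transplanted tumor received test compound or vehicle. Survival was recorded in each group, and the value is the treated-group measurement divided by that of the vehicle-treated control group.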
# [1] = dose: 50.0 mg/kg/injection, schedule: Q01DX005 (ip), vehicle: Klucel (hydroxypropylcellulose) (HPC)
# [2] = dose: 100.0 mg/kg/injection, schedule: Q01DX005 (ip), vehicle: Klucel (hydroxypropylcellulose) (HPC)
# [3] = dose: 200.0 mg/kg/injection, schedule: Q01DX005 (ip), vehicle: Klucel (hydroxypropylcellulose) (HPC)
# [4] = dose: 50.0 mg/kg/injection, schedule: Q01DX009 (ip), vehicle: saline with Tween-80
# [5] = dose: 100.0 mg/kg/injection, schedule: Q01DX009 (ip), vehicle: saline with Tween-80
# [6] = dose: 200.0 mg/kg/injection, schedule: Q01DX009 (ip), vehicle: saline with Tween-80
# [7] = dose: 50.0 mg/kg/injection, schedule: Q01DX009 (ip), vehicle: other
# [8] = dose: 60.0 mg/kg/injection, schedule: Q01DX005 (ip), vehicle: saline with Tween-80
# [9] = dose: 50.0 mg/kg/injection, schedule: Q01DX005 (ip), vehicle: saline with Tween-80
# [10] = dose: 100.0 mg/kg/injection, schedule: Q01DX005 (ip), vehicle: saline with Tween-80
# [11] = dose: 200.0 mg/kg/injection, schedule: Q01DX005 (ip), vehicle: saline with Tween-80
# [12] = dose: 12.5 mg/kg/injection, schedule: Q01DX009 (ip), vehicle: saline with Tween-80
# [13] = dose: 25.0 mg/kg/injection, schedule: Q01DX009 (ip), vehicle: saline with Tween-80
smiles,measurement,setting,value
CCOCCOC(=O)c1nn(-c2ccc(Cl)cc2)c2c1C(=O)c1ccccc1C2=O,T/C,[1],94 % of control
same,T/C,[2],100 % of control
same,T/C,[3],101 % of control
c1ccc2[nH]c(N=Nc3cccc4c(N=Nc5cc6ccccc6[nH]5)cccc34)cc2c1,T/C,[4],100 % of control
same,T/C,[5],100 % of control
same,T/C,[6],103 % of control
CC1(C)C(=O)C(/C=C\c2ccccc2[N+](=O)[O-])Cc2ccccc21 (stereo unspecified),T/C,"dose: 100.0 mg/kg/injection, schedule: Q01DX001 (ip), vehicle: Klucel (hydroxypropylcellulose) (HPC)",100 % of control
same,T/C,"dose: 200.0 mg/kg/injection, schedule: Q01DX001 (ip), vehicle: Klucel (hydroxypropylcellulose) (HPC)",99 % of control
same,T/C,"dose: 400.0 mg/kg/injection, schedule: Q01DX001 (ip), vehicle: Klucel (hydroxypropylcellulose) (HPC)",100 % of control
CCN(CC)CCCC(C)Nc1ccc2cc(OC)ccc2n1 (stereo unspecified),T/C,"dose: 6.25 mg/kg/injection, schedule: Q01DX005 (ip), vehicle: saline",103 % of control
same,T/C,"dose: 12.5 mg/kg/injection, schedule: Q01DX005 (ip), vehicle: saline",103 % of control
CC(C)(C)OC(=O)NCS(=O)(=O)N(Cc1ccccc1)Cc1ccccc1,T/C,[1],102 % of control
same,T/C,[2],101 % of control
same,T/C,[3],97 % of control
COc1ccc(C(=O)c2ncccc2C)cc1OC,T/C,[7],95 % of control
same,T/C,"dose: 100.0 mg/kg/injection, schedule: Q01DX009 (ip), vehicle: other",99 % of control
same,T/C,"dose: 200.0 mg/kg/injection, schedule: Q01DX009 (ip), vehicle: other",95 % of control
CCCCC1N=CNc2c1ccc1c2[nH]c2ccccc21 (stereo unspecified),T/C,"dose: 12.5 mg/kg/injection, schedule: Q04DX002 (ip), vehicle: saline with Tween-80",101 % of control
same,T/C,"dose: 25.0 mg/kg/injection, schedule: Q04DX002 (ip), vehicle: saline with Tween-80",99 % of control
same,T/C,"dose: 50.0 mg/kg/injection, schedule: Q04DX002 (ip), vehicle: saline with Tween-80",111 % of control
OCCN1CCN(CCCOC2=Nc3ccccc3O/C2=C/c2ccccc2)CC1,T/C,"dose: 25.0 mg/kg/injection, schedule: Q04DX003 (ip), vehicle: saline",100 % of control
same,T/C,"dose: 50.0 mg/kg/injection, schedule: Q04DX003 (ip), vehicle: saline",100 % of control
same,T/C,"dose: 100.0 mg/kg/injection, schedule: Q04DX003 (ip), vehicle: saline",98 % of control and 101 % of control
O=C(c1ccc(Cl)nc1)c1cccs1,T/C,"dose: 50.0 mg/kg/injection, schedule: Q01DX005 (ip), vehicle: distilled water + alcohol",98 % of control
same,T/C,"dose: 100.0 mg/kg/injection, schedule: Q01DX005 (ip), vehicle: distilled water + alcohol",108 % of control
same,T/C,"dose: 200.0 mg/kg/injection, schedule: Q01DX005 (ip), vehicle: distilled water + alcohol",110 % of control
COC1=C2CC(C)CC(OC)C(O)C(C)/C=C(\C)C(OC(N)=O)C(OC)/C=C\C=C(/C)C(=O)NC(=C(C=NC(C)(C)C)C1=O)C2=O (stereo unspecified),T/C,[8],124 % of control
Cc1ccc(S(=O)(=O)N/N=C/c2cc(I)cc([N+](=O)[O-])c2O)cc1,T/C,[9],95 % of control
same,T/C,[10],101 % of control
same,T/C,[11],100 % of control
CC(C)c1ccc(Nc2n[nH]c(=S)s2)cc1,T/C,[1],105 % of control
same,T/C,[2],100 % of control
same,T/C,[3],99 % of control
CN1C(=O)CCC1(O)C1SCCCS1 (stereo unspecified),T/C,"dose: 50.0 mg/kg/injection, schedule: Q01DX005 (ip), vehicle: saline",102 % of control
same,T/C,"dose: 100.0 mg/kg/injection, schedule: Q01DX005 (ip), vehicle: saline",100 % of control
same,T/C,"dose: 200.0 mg/kg/injection, schedule: Q01DX005 (ip), vehicle: saline",102 % of control
O=C(NC(=O)c1cccc2ccccc12)NC(=S)c1cccc2ccccc12,T/C,"dose: 100.0 mg/kg/injection, schedule: Q01DX001 (ip), vehicle: saline",103 % of control and 96 % of control
same,T/C,"dose: 200.0 mg/kg/injection, schedule: Q01DX001 (ip), vehicle: saline",109 % of control and 95 % of control
same,T/C,"dose: 400.0 mg/kg/injection, schedule: Q01DX001 (ip), vehicle: saline",101 % of control and 87 % of control
CCCCN1CS[C@@H]2CCCC[C@H]21,T/C,"dose: 21.0 mg/kg/injection, schedule: Q01DX005 (ip), vehicle: Klucel (hydroxypropylcellulose) (HPC)",104 % of control
same,T/C,"dose: 42.0 mg/kg/injection, schedule: Q01DX005 (ip), vehicle: Klucel (hydroxypropylcellulose) (HPC)",113 % of control
same,T/C,"dose: 84.0 mg/kg/injection, schedule: Q01DX005 (ip), vehicle: Klucel (hydroxypropylcellulose) (HPC)",116 % of control
O=NNc1ccc(Cl)cn1,T/C,"dose: 3.12 mg/kg/injection, schedule: Q01DX009 (ip), vehicle: water",123 % of control
same,T/C,"dose: 12.5 mg/kg/injection, schedule: Q01DX009 (ip), vehicle: water",187 % of control
COc1ccc(CCCNC(=O)Cc2ccccc2)cc1OC,T/C,[4],92 % of control
same,T/C,[5],92 % of control
same,T/C,[6],91 % of control
CCCc1cccc2c3c([nH]c12)C(CC)(CC(=O)O)CCC3 (stereo unspecified),T/C,[12],97 % of control
same,T/C,[13],106 % of control
same,T/C,[4],98 % of control and 97 % of control
COc1c(NC(C)=O)c2c(c([N+](=O)[O-])c1OC)C(=O)OC2,T/C,[1],106 % of control
same,T/C,[2],104 % of control
same,T/C,[3],110 % of control
O=C(NCCF)Oc1ccc([N+](=O)[O-])cc1,T/C,"dose: 6.25 mg/kg/injection, schedule: Q01DX005 (ip), vehicle: Klucel (hydroxypropylcellulose) (HPC)",106 % of control
same,T/C,"dose: 12.5 mg/kg/injection, schedule: Q01DX005 (ip), vehicle: Klucel (hydroxypropylcellulose) (HPC)",113 % of control and 115 % of control
same,T/C,"dose: 25.0 mg/kg/injection, schedule: Q01DX005 (ip), vehicle: Klucel (hydroxypropylcellulose) (HPC)",121 % of control and 122 % of control
CCCCCCCCCCCCSC(SCCCCCCCCCCCC)SCCCCCCCCCCCC,T/C,[12],97 % of control
same,T/C,[13],92 % of control
same,T/C,[4],99 % of control
same,T/C,[5],106 % of control
Cc1ccc(S(=O)(=O)N=S(C)C)cc1,T/C,"dose: 6.25 mg/kg/injection, schedule: Q01DX009 (ip), vehicle: other",117 % of control
same,T/C,"dose: 12.5 mg/kg/injection, schedule: Q01DX009 (ip), vehicle: other",107 % of control
same,T/C,"dose: 25.0 mg/kg/injection, schedule: Q01DX009 (ip), vehicle: other",113 % of control
same,T/C,[7],118 % of control
same,T/C,[4],100 % of control
same,T/C,[5],106 % of control
same,T/C,[6],111 % of control
same,T/C,"dose: 400.0 mg/kg/injection, schedule: Q01DX009 (ip), vehicle: saline with Tween-80",116 % of control
C1=C(C2CCCC3[C@@H]4C[C@@H](CN23)C2CCCCN2C4)CCC2[C@H]3C[C@H](CN12)C1CCCCN1C3 (stereo partly specified),T/C,"dose: 3.75 mg/kg/injection, schedule: Q01DX005 (ip), vehicle: Klucel (hydroxypropylcellulose) (HPC)",106 % of control
same,T/C,"dose: 7.5 mg/kg/injection, schedule: Q01DX005 (ip), vehicle: Klucel (hydroxypropylcellulose) (HPC)",104 % of control
same,T/C,"dose: 15.0 mg/kg/injection, schedule: Q01DX005 (ip), vehicle: Klucel (hydroxypropylcellulose) (HPC)",110 % of control and 96 % of control
same,T/C,"dose: 30.0 mg/kg/injection, schedule: Q01DX005 (ip), vehicle: Klucel (hydroxypropylcellulose) (HPC)",100 % of control
O=C1CC(=O)N2C(=O)CC(=O)N12,T/C,[8],99 % of control
same,T/C,"dose: 120.0 mg/kg/injection, schedule: Q01DX005 (ip), vehicle: saline with Tween-80",103 % of control
same,T/C,"dose: 240.0 mg/kg/injection, schedule: Q01DX005 (ip), vehicle: saline with Tween-80",97 % of control
CCCOc1c(C)cc(C(=O)CCN2CCOCC2)cc1Cl,T/C,[4],113 % of control
same,T/C,[5],112 % of control
same,T/C,[6],99 % of control
CCCCCCC(=O)/C=C/c1ccc(Br)cc1,T/C,[9],104 % of control
same,T/C,[10],104 % of control
same,T/C,[11],97 % of control
CCCCCCCCCC[N+]1(CC)CCCCCC1,T/C,"dose: 3.12 mg/kg/injection, schedule: Q01DX009 (ip), vehicle: saline",90 % of control
same,T/C,"dose: 6.25 mg/kg/injection, schedule: Q01DX009 (ip), vehicle: saline",98 % of control
O=C(CSC1CCc2ccccc21)NNC(=O)Nc1ccc(Cl)cc1 (stereo unspecified),T/C,[1],90 % of control
same,T/C,[2],95 % of control
same,T/C,[3],89 % of control
CCCC(=O)Oc1c(OC)cc(O)c2c(=O)c(O)c(-c3ccc(OC)cc3)oc12,T/C,"dose: 14.0 mg/kg/injection, schedule: Q01DX005 (ip), vehicle: Klucel (hydroxypropylcellulose) (HPC)",89 % of control
same,T/C,"dose: 56.0 mg/kg/injection, schedule: Q01DX005 (ip), vehicle: Klucel (hydroxypropylcellulose) (HPC)",87 % of control
same,T/C,"dose: 112.0 mg/kg/injection, schedule: Q01DX005 (ip), vehicle: Klucel (hydroxypropylcellulose) (HPC)",108 % of control
Oc1cccc(N2CCN(c3cccc(O)c3)CC2)c1,T/C,"dose: 60.0 mg/kg/injection, schedule: Q01DX005 (ip), vehicle: Klucel (hydroxypropylcellulose) (HPC)",91 % of control
same,T/C,"dose: 120.0 mg/kg/injection, schedule: Q01DX005 (ip), vehicle: Klucel (hydroxypropylcellulose) (HPC)",89 % of control
